# Assay results: US20090053187A1 (priority 2005, published 2009)
# Several values for one entry are separate records, joined by “and”; a condition that tells them apart may be missing. Equal entries are not always repeated.
# Columns and labels:
# [1] = test system: Bacillus anthracis 71/12 (Tsenkovsky vaccine II); set-up: species or system outbred white mice; conditions: mouse, in vivo
# STI-1 = type: cell-based
# STI-PRTS = type: cell-based
# Bacillus anthracis STI-1 = test system: Bacillus anthracis STI-1; set-up: species or system Mice of CBA line; conditions: mouse, in vivo
molecule,measurement,setting,value
lyzozyme,Death of animal on day 2,[1],1
same,Death of animal on day 3,[1],3
same,Death of animal on day 6,[1],0
same,Death of animal on day 7,[1],0
same,Number of perished/Number of infected,[1],4/5
same,mortality,[1],80%
ampicillin,Zone of culture growth delay at using discs with antibiotics,STI-1,4 mm
same,Zone of culture growth delay at using discs with antibiotics,STI-PRTS,0 mm
tetracycline [Tc],Zone of culture growth delay at using discs with antibiotics,STI-1,7 mm
same,Zone of culture growth delay at using discs with antibiotics,STI-PRTS,0 mm
C[C@H]1c2cccc(O)c2C(=O)C2=C(O)[C@]3(O)C(=O)C(C(N)=O)=C(O)[C@@H](N(C)C)[C@@H]3[C@@H](O)[C@@H]21 [doxycycline],Death of animals among those taken for the experiment,Bacillus anthracis STI-1,3/3 and 1/3 and 0/3
